Results: the CheMixHub viscosity set
± gives the uncertainty stated by the source.

Assay: xn = mol fraction of the nth substance listed

CCc1ccccc1 + CCCCCC
viscosity [mPa·s], 101 kPa
Settings	x2 = 0.14	x2 = 0.247	x2 = 0.337	x2 = 0.486	x2 = 0.641	x2 = 0.731
298.15 K	0.56 ± 0.015	0.51 ± 0.014	0.47 ± 0.013	0.416 ± 0.012	–	0.339 ± 0.009
308.15 K	0.499 ± 0.014	0.454 ± 0.013	0.421 ± 0.012	0.371 ± 0.01	0.326 ± 0.009	0.302 ± 0.008
323.15 K	0.426 ± 0.012	0.39 ± 0.011	0.363 ± 0.01	0.321 ± 0.009	0.283 ± 0.008	0.263 ± 0.007

COC(C)(C)C + CCCCCC
303.15 K, 101 kPa
Settings	viscosity [mPa·s]
x1 = 0.1579	0.314 ± 0.003
x1 = 0.2829	0.318 ± 0.003
x1 = 0.3671	0.321 ± 0.003
x1 = 0.4436	0.323 ± 0.003
x1 = 0.5404	0.327 ± 0.003
x1 = 0.604	0.33 ± 0.003
x1 = 0.7122	0.335 ± 0.003
x1 = 0.8674	0.342 ± 0.003

Clc1ccccc1 + CCCCCC
viscosity [mPa·s], 101.33 kPa
Settings	x2 = 0.0793	x2 = 0.1624	x2 = 0.2494	x2 = 0.3407	x2 = 0.4367	x2 = 0.5377	x2 = 0.644	x2 = 0.7562	x2 = 0.8747
303.15 K	0.6623 ± 0.0066	0.6095 ± 0.0061	0.5578 ± 0.0057	0.5101 ± 0.0053	0.4658 ± 0.0049	0.4254 ± 0.0045	0.3927 ± 0.0042	0.3549 ± 0.0039	0.3227 ± 0.0036
313.15 K	0.6011 ± 0.006	0.5513 ± 0.0056	0.5124 ± 0.0053	0.4699 ± 0.0049	0.4288 ± 0.0046	0.3946 ± 0.0043	0.3647 ± 0.004	0.3305 ± 0.0037	0.3021 ± 0.0035
323.15 K	0.5314 ± 0.0054	0.4893 ± 0.0051	0.4543 ± 0.0048	0.4164 ± 0.0044	0.3835 ± 0.0042	0.3551 ± 0.0039	0.3268 ± 0.0037	0.2997 ± 0.0034	0.2745 ± 0.0032

CCCCCCCCCCCCCCCCCCCCCC + CCCCCCC
viscosity [mPa·s], 101.3 kPa
Settings	x1 = 0.2	x1 = 0.4	x1 = 0.479	x1 = 0.596	x1 = 0.798
303.2 K	0.9761 ± 0.011	–	–	–	–
313.2 K	0.8502 ± 0.0096	1.621 ± 0.018	2.137 ± 0.024	–	–
323.1 K	0.7493 ± 0.0085	1.39 ± 0.016	1.826 ± 0.021	2.449 ± 0.028	3.197 ± 0.036

COC(C)(C)C + CCCCCCC
303.15 K, 101 kPa
Settings	viscosity [mPa·s]
x1 = 0.1976	0.373 ± 0.003
x1 = 0.2745	0.369 ± 0.003
x1 = 0.3423	0.364 ± 0.003
x1 = 0.4536	0.359 ± 0.003
x1 = 0.5656	0.356 ± 0.003
x1 = 0.6441	0.353 ± 0.003
x1 = 0.7685	0.35 ± 0.003
x1 = 0.8606	0.349 ± 0.003

COC(C)(C)C + CCCCCCCC
viscosity [mPa·s], 101 kPa
Settings	293.15 K	298.15 K	303.15 K	308.15 K
x1 = 0.0937	0.5238 ± 0.011	0.5009 ± 0.011	0.4686 ± 0.01	0.4492 ± 0.0097
x1 = 0.1345	–	–	0.444 ± 0.003	–
x1 = 0.1875	0.5065 ± 0.011	0.4844 ± 0.01	0.454 ± 0.0098	0.4355 ± 0.0094
x1 = 0.2831	–	–	0.423 ± 0.003	–
x1 = 0.2942	0.4873 ± 0.01	0.4666 ± 0.01	0.4382 ± 0.0094	0.4201 ± 0.009
x1 = 0.3682	–	–	0.417 ± 0.003	–
x1 = 0.412	0.4668 ± 0.0099	0.447 ± 0.0095	0.4207 ± 0.009	0.4035 ± 0.0086
x1 = 0.4989	–	–	0.406 ± 0.003	–
x1 = 0.511	0.4502 ± 0.0096	0.4313 ± 0.0092	0.4067 ± 0.0087	0.3903 ± 0.0083
x1 = 0.5482	–	–	0.401 ± 0.003	–
x1 = 0.5952	0.4367 ± 0.0093	0.4189 ± 0.0089	0.3957 ± 0.0084	0.3793 ± 0.0081
x1 = 0.699	0.4201 ± 0.0089	0.4027 ± 0.0085	0.3811 ± 0.0081	0.3653 ± 0.0078
x1 = 0.791	–	–	0.388 ± 0.003	–
x1 = 0.7965	0.4039 ± 0.0086	0.3871 ± 0.0082	–	0.3518 ± 0.0075
x1 = 0.8407	–	–	0.381 ± 0.003	–
x1 = 0.9009	0.3867 ± 0.0082	0.3707 ± 0.0079	0.3523 ± 0.0075	0.3376 ± 0.0072
